Assay results as given in patent US5670538A, “Use of prodelphinidins for obtaining medicaments intended for the treatment of arthrosis” (Laboratoires Dolisos, priority 1992, dated 1997).

What was measured:
[1] = tested on: human articular chondrocytes; test: Radioimmunoassay of prostaglandins E2 (PGE2) produced in tridimensional culture of human chondrocytes; format: cell-based; conditions: for Amounts of PGE2 in the culture media taken on the 4th and 8th day: 1% Ultroser G, incubation of the 4th to 8th day; for PGE2 in the culture medium: foetal calf serum
Source text: The model used for testing the proanthocyanidols, namely the tridimensional culture of human chondrocytes allows chondrorepair to be quantified by the production of matrix substances: type II collagen, proteoglycans, and chondroresorption by the reduction in the levels of prostaglandin E2 and of OH° and O°2 type free radicals produced.
(§1) 1. Tridimensional culture of human chondrocytes
(§2) The technique used has been described in detail (Bassleer et al., 1986).
(§3) Briefly, human articular chondrocytes are cultivated in DMEM (Dulbecco's Modification of Eagle's Medium--ICN--Gand, Belgium) with either Ultroser G 1% (GIBCO, Gand, Belgium) or 10% of foetal calf serum (ICN--Gand--Belgium), and 50 μg of ascorbic acid/ml added to it. The cartilage originates from the apparently normal zone of heads of human femur suffering from arthrosis, immediately after an operation carried out to insert a total hip prosthesis; it can also originate from the head of a healthy femur, but which has undergone a traumatism and has had to be replaced. This cartilage is then digested by clostridial collagenase 1 mg/ml (Boehringer-Mannheim, Germany) in a buffer (NaCl 120 mM, CaCl2 1 mM, KCl 5 mM, KH2 PO4 1 mM, NaHCO3 25 mM, glucose 2 mM and Hepes 30 mM, pH 7.4) for 24 hours. After 6 successive washings and centrifugations, the chondrocytes, isolated from their matrix, are cultured in flasks (10^6 cells/2 ml of culture medium) placed on a gyrator (10 rpm). The cultures are kept at 37° C. in an atmosphere of air 95%-CO2 5% (Bassleer et al., 1986). Cultivated under these conditions, after 4 to 5 days the chondrocytes form a tridimensional cluster in each flask. These clusters, which at first have a flocculent appearance, then tend to condense during the culture. After two weeks, their diameter is, in general, from 1 to 2 mm.
(§4) The fresh weight of the clusters increases with the duration of the culture, above all during the few first days.
4. Radioimmunoassay of prostaglandins E2 (PGE2)
The radioimmunoassay of PGE2s is carried out according to the method described by Serteyn et al., 1988. The PGE2 is obtained from Sigma (Aldrich-Chemie, Steinheim, Germany) and the ^3 H-PGE2 from NEN (Du Pont de Nemours, Brussels, Belgium). 0.1 ml of incubation buffer (10 mM Tris-HCl […], 0.5% sodium azide (W/V), 1% gelatine (W/V), pH 7.4), 0.1 ml of ^3 H-PGE2 (diluted so as to obtain 10,000 cpm/0.1 ml) and 0.1 ml of antiserum (1/4000) are added successively to 0.1 ml of the sample to be assayed or the reference antigen (0-500 pg). After incubation for 48 hours at 4° C., the free antigen is separated from the antigens bound to the antibodies by a precipitation with carbon-DEXTRAN T70 (0.5 ml per tube). The carbon-Dextran solution contains 5 g/l of neutral carbon, 500 mg of Dextran 70/l. After centrifugation (20 minutes, 3000 rpm, 4° C.), the radioactivity present in the supernatant is measured with a beta counter (Beckman) using liquid scintillation. The sensitivity of the assay is 20 pg/ml.
The accuracy of the method is 5%. The coefficients of the intra- and inter assay variation are 6% and 10% respectively. There is no cross reaction between this anti PGE2 antiserum and other prostanoids (Thromboxane B2, G-keto-PGF1-alpha, PGF2, PGA2), nor with the fatty acids such as arachidonic acid, oleic acid or also linoleic acid.
The results are expressed in quantities of PG, coll. II or PGE2 measured in the culture medium (CM) per μg of DNA. The cumulative measurements are obtained by adding the quantities assayed in the CMs to each renewal of the CM, for successive periods: 0 to 4, 4 to 8, 8 to 12 days of culture. The total production of PG is calculated by adding the cumulative quantities measured in the CMs to those measured in the corresponding clusters. The mean and the standard deviation (m±s.d) are calculated. Comparison of the mean values is carried out using the Mann-Whitney U statistical test. […]

[2] = tested on: human articular chondrocytes; test: Synthesis of DNA by incorporation of 3H-thymidine in the chondrocytes, index of cell proliferation; format: cell-based; conditions: 1, 10 and 100 pg/ml (so in the source); relative to control values
Protocol: as §1, §2, §3, §4
5. Analysis of the synthesis of DNA by measurement of the incorporation of ^3 H-thymidine
After different culture durations, the chondrocytes are cultivated in nutritive medium with the addition of 2 uCi/ml (5 Ci/mmole) of methyl ^3 H-thymidine (^3 H-TDN) (Amersham, Brussels, Belgium) for 24 hours. […]
The radioactivity incorporated in the cluster is then measured using a beta scintillation counter.

[3] = Antilipoperoxidizing activity (gamma irradiation, linoleic acid substrate, pentane); format: biochemical; conditions: for % inhibition of pentane release from linoleic acid (lipid peroxidation): Substrate: Linoleic acid, relative to the controls; for Production of free radicals from linoleic acid, effect in words: Table 23
Protocol: 9. Antilipoperoxidizing activity
Similar to the preceding anti-radical method but where the KMB is replaced by linoleic acid (C18: 2), the gamma radiation releases pentane which is analyzed. The height of the pentane peak is proportional to the quantity free of radicals formed in the medium.

[4] = tested on: polymorphonuclear cells (PMNs); test: Production of the superoxide anion by the polymorphonuclear cells (PMNs), reduction of ferricytochrome C; format: cell-based; conditions: 0.032 mM; phorbol myristate acetate; no conclusion possible on superoxide inhibition
Protocol: 10. Production of the superoxide anion (O°^2) by the polymorphonuclear cells (PMNs).
This is measured with a double beam spectrophotometer which allows the reduction of ferricytochrome C by O°2 tc be monitored. The incubation medium (2.5 ml) is constituted by PBS buffer containing glucose (7.5 mM), ferricytochrome C (0.956 mM), CaCl2 (2.3 mM), MgCl2 (1.1 mM), 7.5.10^6 of cells and the substance to be tested at a concentration of 0.032 mM. The reaction is triggered by adding phorbol myristate acetate at a final concentration of 0.012 mM and the reduction of the cytochrome C is monitored at 550 nm for 10 minutes. The reference cell contains the same material as that described above with an additional 48 μg of superoxide dismutase (SOD)/ml of medium.

[5] = tested on: ferricytochrome C; test: Control experiments: direct reduction of ferricytochrome C by the product itself; format: biochemical; conditions: effect not quantifiable
Source text: This effect not being quantifiable, no conclusion can consequently be drawn on a possible inhibiting effect of these products on the production of the superoxide anion by the activated PMNs.

| SMILES | Amounts of PGE2 in the culture media taken on the 4th and 8th day ([1]; 1 μg/ml) | Amounts of PGE2 in the culture media taken on the 4th and 8th day ([1]; 10 μg/ml) | Amounts of PGE2 in the culture media taken on the 4th and 8th day ([1]; 100 μg/ml) | PGE2 in the culture medium ([1]; 0-4 days, 10 μg/ml) | PGE2 in the culture medium ([1]; 0-4 days, 100 μg/ml) | PGE2 in the culture medium ([1]; 4-8 days, 10 μg/ml) | PGE2 in the culture medium ([1]; 4-8 days, 100 μg/ml) | Incorporation of 3H thymidine in the chondrocytes [2] | % inhibition of pentane release from linoleic acid (lipid peroxidation) ([3]; 10^-3 M) | % inhibition of pentane release from linoleic acid (lipid peroxidation) ([3]; 10^-4 M) | % inhibition of pentane release from linoleic acid (lipid peroxidation) ([3]; 10^-5 M) | Production of free radicals from linoleic acid, effect in words [3] | Reduction of ferricytochrome C by PMNs [4] | Direct reduction of ferricytochrome C [5] |
| --- | --- | --- | --- | --- | --- | --- | --- | --- | --- | --- | --- | --- | --- | --- |
| Oc1cc(O)c2c(c1)O[C@H](c1cc(O)c(O)c(O)c1)[C@@H](O)[C@@H]2c1c(O)cc(O)c2c1O[C@H](c1cc(O)c(O)c(O)c1)[C@H](O)C2 [Substance Ia, GC-(4 alpha→8) EGC] | 91.5 ± 9 pg/μg of DNA | 44 ± 0.6 pg/μg of DNA | 25 ± 13 pg/μg of DNA | 312 ± 15 pg/μg DNA/96 H | 143 ± 25 pg/μg DNA/96 H | 27 ± 2.5 pg/μg DNA/96 H | 25 ± 3.5 pg/μg DNA/96 H | None of the substances Ia, lb and Ic modifies the incorporation | 94% | 42% | 0% | significantly inhibits | strongly reduced | powerful reducers of ferricytochrome C |
| Oc1cc(O)c2c(c1)O[C@H](c1cc(O)c(O)c(O)c1)[C@@H](O)[C@@H]2c1c(O)cc(O)c2c1O[C@H](c1cc(O)c(O)c(O)c1)[C@@H](O)C2 [Substance Ib, GC-(4 alpha→8) GC] | 129 ± 19 pg/μg of DNA | 76 ± 14 pg/μg of DNA | 48 ± 15 pg/μg of DNA | 130 ± 21 pg/μg DNA/96 H | 121 ± 16 pg/μg DNA/96 H | 30 ± 1.7 pg/μg DNA/96 H | 25 ± 1 pg/μg DNA/96 H | None of the substances Ia, lb and Ic modifies the incorporation | 93% | 45% | 0% | significantly inhibits | strongly reduced | powerful reducers of ferricytochrome C |
| Oc1cc(O)c2c(c1)O[C@H](c1cc(O)c(O)c(O)c1)[C@@H](O)[C@@H]2c1c(O)cc(O)c2c1O[C@H](c1cc(O)c(O)c(O)c1)[C@@H](O)[C@@H]2c1c(O)cc(O)c2c1O[C@H](c1cc(O)c(O)c(O)c1)[C@@H](O)C2 [Substance Ic, GC-(4 alpha→8) GC-(4 a→8)-GC] | 101 ± 7 pg/μg of DNA | 81 ± 12 pg/μg of DNA | 39 ± 10 pg/μg of DNA | 160 ± 17 pg/μg DNA/96 H | 153 ± 15 pg/μg DNA/96 H | 35.5 ± 2.1 pg/μg DNA/96 H | 29 ± 3.5 pg/μg DNA/96 H | None of the substances Ia, lb and Ic modifies the incorporation | 91% | 40% | 0% | significantly inhibits | – | powerful reducers of ferricytochrome C |
